Measurements from patent US11034661B2, “Substituted N′-hydroxycarbamimidoyl-1,2,5-oxadiazole compounds as indoleamine 2,3-dioxygenase IDO inhibitors” (Merck Sharp & Dohme Corp., priority 2017, dated 2021).

Columns and labels:
HIS-tagged IDO1 protein = HIS-tagged IDO1 protein (Homo sapiens (Human), UniProt P14902); experiment: IDO1 Enzyme Assay; type: biochemical; settings: recombinant IDO1 40 nM, tryptophan substrate, fluorescence readout
Summary of the method: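 Recombinant E. coli-expressed HIS-IDO1 (40 nM final) in 50 mM Tris pH 7.0 with methylene blue, ascorbate and catalase, preincubated with compound 30 min at RT, then tryptophan added and reacted 60 min at RT. Quenched with methyl isonipecotate, heated, fluorescence read (ex 400/em 510 nm); IC50 from four-parameter logistic fit.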

[1] = biological target: IDO1 in Hela cells stimulated with IFNγ (Homo sapiens (Human), UniProt P14902); experiment: IDO1 Cellular Assay in Hela Cells Stimulated with IFNγ; type: cell-based; settings: IFNγ 100 ng/mL, about 48 hours, fluorescence readout, read-out: IDO1 HELA Cell Assay, IC50
Summary of the method: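 IFNγ-stimulated (100 ng/mL) HeLa cells with 300 uM L-tryptophan were incubated with 10-point 3-fold compound dilutions for about 48 h at 37 °C. Kynurenine product was derivatized with methyl isonipecotate overnight and read by fluorescence (ex 400/em 510 nm). Signal was background-corrected using non-IFNγ cells and normalized to DMSO, and IC50 came from a four-parameter logistic fit.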

[2] = biological target: IDO1 in human whole blood stimulated with LPS and IFNγ (Homo sapiens (Human), UniProt P14902); experiment: IDO1 Human Whole Blood Assay; type: cell-based; settings: LPS and IFNγ 100 ng/mL, 18 h, kynurenine by LC/MS/MS
Description: IDO1 Human Whole Blood Assay
Compounds to be tested were serially diluted in ten 3-fold steps in DMSO starting from 10 mM. 3 μL of compound dilutions or DMSO alone were then dispensed from the dilution plate into a polypropylene 96-well assay plate containing 97 μL of RPMI using an Echo 555 acoustic liquid handler (Labcyte). LPS and IFNγ was prepared in RPMI to a 10× of final conc. (1000 ng/mL), final concentration is 100 ng/mL.
Human whole blood was drawn in sodium heparin coated tubes from healthy internal donors. Two hundred forty μL of blood was transferred to each of the wells of a v-bottom 96 well plate. Thirty μL of compound was transferred from intermediate dilution plate, and incubated for 15 min. Thirty μL from stimulants was then transferred to blood and mixed thoroughly. Plate was covered with breathable membrane and incubated at 37° C. for overnight (18 h).
On day 2 isotope labeled standard of kynurenine and tryptophan was made in water at 10× concentration and 30 μL was added to the blood at 3 μM final concentration. The assay plates were centrifuged at 300×G for 10 min with no brake to separate plasma from red blood cells. Sixty μL of plasma samples was removed without disturbing red blood cells. Plasma was diluted with RPMI in 1:1 ratio and proteins were precipitated out with two volume of Acetonitrile. The plates was centrifuged at 4000×G for 60 min. Twenty μL of supernatant was carefully transferred to a 384 well plate contain 40 μL of 0.1% formic acid in water and analyzed by LC/MS/MS.
LC/MS/MS analyses were performed using Thermo Fisher's LX4-TSQ Quantum Ultra system. This system consists of four Agilent binary high-performance liquid chromatography (HPLC) pumps and a TSQ Quantum Ultra triple quadruple MS/MS instrument. For each sample, 5 μL were injected onto an Atlantis T3 column (2.1 mm×150 mm, 3 μm particle size) from Waters. The mobile phase gradient pumped at 0.8 mL/min was used to elute the analytes from the column at 25° C. The elution started at 0% B increasing linearly to 25% B at 6.5 min, holding at 25% for 1 min, re-equilibrating to 10 min. Mobile phase A consisted of 0.1% formic acid in water. Mobile phase B consisted of 0.1% of formic acid in acetonitrile. Data was acquired in positive mode using a HESI interface. The operational parameters for the TSQ Quantum Ultra instrument were a spray voltage of 4000 V, capillary temperature of 380° C., vaporizer temperature 400° C., shealth gas 60 arbitrary units, Aux gas 20 arbitrary units, tube lens 85 and collision gas 1.2 mTorr. SRM chromatograms of kynurenine (Q 1: 209.2>Q3:94.0) and internal standard (Q1: 215.3>Q3:98.2) were collected for 90 sec. The peak area was integrated by Xcalibur Quan software. The ratios between the kynurenine generated in the reaction and 2D6-Kynurenine spiked-in internal standard were used to generate percentage inhibition and IC50 values. Compounds were titrated and IC50's were calculated by 4 parameter sigmoidal curve fitting formula.

IDO1 in Hela cells stimulated with IFNγ, sequence (P14902 whole entry): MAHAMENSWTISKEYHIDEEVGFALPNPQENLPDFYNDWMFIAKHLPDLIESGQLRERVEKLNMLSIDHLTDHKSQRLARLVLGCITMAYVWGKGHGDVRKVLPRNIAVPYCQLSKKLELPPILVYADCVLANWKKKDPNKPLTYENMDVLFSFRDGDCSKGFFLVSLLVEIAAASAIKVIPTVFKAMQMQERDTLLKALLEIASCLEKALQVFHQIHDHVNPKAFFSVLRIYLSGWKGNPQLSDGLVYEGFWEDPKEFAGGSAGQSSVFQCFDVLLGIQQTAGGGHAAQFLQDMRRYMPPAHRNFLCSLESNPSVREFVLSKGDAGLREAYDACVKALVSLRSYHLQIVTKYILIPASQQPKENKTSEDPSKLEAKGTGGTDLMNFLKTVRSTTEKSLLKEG
IDO1 in human whole blood stimulated with LPS and IFNγ, sequence (P14902 whole entry): as above
HIS-tagged IDO1 protein, sequence (P14902 whole entry): as above

Row | IC50 (HIS-tagged IDO1 protein) | IC50 [1] | IDO1 human whole blood assay, IC50 [2] | Compound
1 | 0.0678 µM | 0.0749 µM | 0.5186 µM | O=C(CO)N[C@H]1C[C@@H](Oc2nonc2/C(=N/O)N[C@H]2Cc3ccc(F)cc32)C1 [Example 38, N-{cis-3-[(4-{N-[(7S)-4-fluorobicyclo[4.2.0]octa-1,3,5-trien-7-yl]-N′-hydroxycarbamimidoyl}-1,2,5-oxadiazol-3-yl)oxy]cyclobutyl}-2-hydroxyacetamide]
2 | 0.114 µM | 0.322 µM | 0.7149 µM | O=C(CO)NCCOc1nonc1/C(=N/O)N[C@H]1Cc2ccc(F)cc21 [Example 5, N-{2-[(4-{N-[(7S)-4-fluorobicyclo[4.2.0]octa-1,3,5-trien-7-yl]-N′-hydroxycarbamimidoyl}-1,2,5-oxadiazol-3-yl)oxy]ethyl}-2-hydroxyacetamide]
3 | 0.102 µM | 0.0884 µM | 0.4003 µM | C[C@H](O)C(=O)N1CC(Oc2nonc2/C(=N/O)N[C@H]2Cc3ccc(F)cc32)C1 [Example 48, N-[(7S)-4-fluorobicyclo[4.2.0]octa-1,3,5-trien-7-yl]-N′-hydroxy-4-({1-[(2S)-2-hydroxypropanoyl]azetidin-3-yl}oxy)-1,2,5-oxadiazole-3-carboximidamide]
4 | 0.0748 µM | 0.194 µM | 0.2624 µM | NC(=O)NCCOc1nonc1/C(=N/O)NC1Cc2ccc(F)cc21 (stereo not drawn) [Example 11, 4-[2-(carbamoylamino)ethoxy]-N-(4-fluorobicyclo[4.2.0]octa-1,3,5-trien-7-yl)-N′-hydroxy-1,2,5-oxadiazole-3-carboximidamide]
5 | 0.056 µM | 0.0659 µM | 0.6655 µM | O=C(c1nc[nH]n1)N1CC(Oc2nonc2/C(=N/O)N[C@H]2Cc3ccc(F)cc32)C1 [Example 30, N-[(7S)-4-fluorobicyclo[4.2.0]octa-1,3,5-trien-7-yl]-N′-hydroxy-4-{[1-(1H-1,2,4-triazole-3-carbonyl)azetidin-3-yl]oxy}-1,2,5-oxadiazole-3-carboximidamide]
6 | 0.0493 µM | 0.106 µM | 0.6664 µM | NS(=O)(=O)NCCOc1nonc1/C(=N/O)N[C@H]1Cc2ccc(F)cc21 [Example 1, (S)—N-(4-fluorobicyclo[4.2.0]octa-1(6),2,4-trien-7-yl)-N′-hydroxy-4-(2-(sulfamoylamino)ethoxy)-1,2,5-oxadiazole-3-carboximidamide]
7 | 0.0507 µM | 0.0421 µM | 0.3142 µM | CC(=O)N[C@H]1C[C@@H](Oc2nonc2/C(=N/O)N[C@H]2Cc3ccc(F)cc32)C1 [Example 36, N-{cis-3-[(4-{N-[(7S)-4-fluorobicyclo[4.2.0]octa-1,3,5-trien-7-yl]-N′-hydroxycarbamimidoyl}-1,2,5-oxadiazol-3-yl)oxy]cyclobutyl}acetamide]
8 | 0.0366 µM | 0.0454 µM | 1.44 µM | NS(=O)(=O)N[C@H]1C[C@@H](Oc2nonc2/C(=N/O)N[C@H]2Cc3ccc(F)cc32)C1 [Example 43, N-[(7S)-4-fluorobicyclo[4.2.0]octa-1,3,5-trien-7-yl]-N′-hydroxy-4-{[cis-3-(sulfamoylamino)cyclobutyl]oxy}-1,2,5-oxadiazole-3-carboximidamide]
9 | 0.0757 µM | 0.0935 µM | 0.2325 µM | O=C(CO)N1CC(Oc2nonc2/C(=N/O)N[C@H]2Cc3ccc(F)cc32)C1 [Example 2, (S)—N-(4-fluorobicyclo[4.2.0]octa-1(6),2,4-trien-7-yl)-N′-hydroxy-4-((1-(2-hydroxyacetyl)azetidin-3-yl)oxy)-1,2,5-oxadiazole-3-carboximidamide]
10 | 0.0585 µM | 0.0514 µM | 0.1854 µM | CC(=O)NCCOc1nonc1/C(=N/O)N[C@H]1Cc2ccc(F)cc21 [Example 3, (S)—N-(2-((4-(N-(4-fluorobicyclo[4.2.0]octa-1(6),2,4-trien-7-yl)-N′-hydroxycarbamimidoyl)-1,2,5-oxadiazol-3-yl)oxy)ethyl)acetamide]
11 | 0.0483 µM | 0.0583 µM | 0.3513 µM | CS(=O)(=O)NCCOc1nonc1/C(=N/O)N[C@H]1Cc2ccc(F)cc21 [Example 6, N-[(7S)-4-fluorobicyclo[4.2.0]octa-1,3,5-trien-7-yl]-N′-hydroxy-4-{2-[(methylsulfonyl)amino]ethoxy}-1,2,5-oxadiazole-3-carboximidamide]
12 | 0.0566 µM | 0.0499 µM | 0.5006 µM | O=C(N1CC(Oc2nonc2/C(=N/O)N[C@H]2Cc3ccc(F)cc32)C1)C1(O)CC1 [Example 47, N-[(7S)-4-fluorobicyclo[4.2.0]octa-1,3,5-trien-7-yl]-N′-hydroxy-4-{[1-(1-hydroxycyclopropane-1-carbonyl)azetidin-3-yl]oxy}-1,2,5-oxadiazole-3-carboximidamide]
13 | 0.0398 µM | 0.053 µM | 0.5033 µM | CCC(=O)NCCOc1nonc1/C(=N/O)N[C@H]1Cc2ccc(F)cc21 [Example 33, N-{2-[(4-{N-[(7S)-4-fluorobicyclo[4.2.0]octa-1,3,5-trien-7-yl]-N′-hydroxycarbamimidoyl}-1,2,5-oxadiazol-3-yl)oxy]ethyl}propanamide]
14 | 0.139 µM | 0.324 µM | 1.414 µM | O=C(COc1nonc1/C(=N/O)N[C@H]1Cc2ccc(F)cc21)NCCO [Example 4, (S)-2-((4-(N-(4-fluorobicyclo[4.2.0]octa-1(6),2,4-trien-7-yl)-N′-hydroxycarbamimidoyl)-1,2,5-oxadiazol-3-yl)oxy)-N-(2-hydroxyethyl)acetamide]
